# Results from ChEMBL document CHEMBL3585344, “Thiazole-based aminopyrimidines and N-phenylpyrazolines as potent antimicrobial agents: synthesis and biological evaluation” (2014).
# Key:
# [1] = tested on: Penicillium ochrochloron; experiment: Fungicidal activity against Penicillium ochrochloron ATCC 9112 after 72 hrs by microdilution method; assay type: functional
# [2] = tested on: Escherichia coli; experiment: Bactericidal activity against Escherichia coli ATCC 35210 after 72 hrs by microdilution method; assay type: functional
# [3] = tested on: Aspergillus niger; experiment: Antifungal activity against Aspergillus niger ATCC 6275 after 72 hrs by microdilution method; assay type: functional; conditions: ATCC 6275, 72 h
# [4] = tested on: Staphylococcus aureus; experiment: Bactericidal activity against Staphylococcus aureus ATCC 6538 after 72 hrs by microdilution method; assay type: functional
# [5] = tested on: Aspergillus fumigatus; experiment: Fungicidal activity against Aspergillus fumigatus isolated from human after 72 hrs by microdilution method; assay type: functional
# [6] = tested on: Bacillus cereus; experiment: Bactericidal activity against Bacillus cereus clinical isolate after 72 hrs by microdilution method; assay type: functional
# [7] = tested on: Talaromyces funiculosus; experiment: Fungicidal activity against Penicillium funiculosum ATCC 36839 after 72 hrs by microdilution method; assay type: functional
# [8] = tested on: Pseudomonas aeruginosa; experiment: Antibacterial activity against Pseudomonas aeruginosa ATCC 27853 after 24 hrs by microdilution method; assay type: functional; conditions: ATCC 27853, 24 h
# [9] = tested on: Talaromyces funiculosus; experiment: Antifungal activity against Penicillium funiculosum ATCC 36839 after 72 hrs by microdilution method; assay type: functional; conditions: ATCC 36839, 72 h
# [10] = tested on: Enterobacter cloacae; experiment: Antibacterial activity against Enterobacter cloacae ATCC 35030 isolated from human after 24 hrs by microdilution method; assay type: functional; conditions: ATCC 35030, 24 h
# [11] = tested on: Candida albicans; experiment: Antifungal activity against Candida albicans ATCC 10231 isolated from human after 72 hrs by microdilution method; assay type: functional; conditions: ATCC 10231, 72 h
# [12] = tested on: Aspergillus ochraceus; experiment: Antifungal activity against Aspergillus ochraceus ATCC 12066 after 72 hrs by microdilution method; assay type: functional; conditions: ATCC 12066, 72 h
# [13] = tested on: Staphylococcus aureus; experiment: Antibacterial activity against Staphylococcus aureus ATCC 6538 after 24 hrs by microdilution method; assay type: functional; conditions: ATCC 6538, 24 h
# [14] = tested on: Salmonella typhimurium; experiment: Bactericidal activity against Salmonella typhimurium ATCC 13311 after 72 hrs by microdilution method; assay type: functional, Salmonella enterica subsp. enterica serovar Typhimurium
# [15] = tested on: Salmonella typhimurium; experiment: Antibacterial activity against Salmonella typhimurium ATCC 13311 after 24 hrs by microdilution method; assay type: functional, Salmonella enterica subsp. enterica serovar Typhimurium; conditions: Salmonella enterica, ATCC 13311, 24 h
# [16] = tested on: Pseudomonas aeruginosa; experiment: Bactericidal activity against Pseudomonas aeruginosa ATCC 27853 after 72 hrs by microdilution method; assay type: functional
# [17] = tested on: Candida albicans; experiment: Fungicidal activity against Candida albicans ATCC 10231 isolated from human after 72 hrs by microdilution method; assay type: functional
# [18] = tested on: Aspergillus ochraceus; experiment: Fungicidal activity against Aspergillus ochraceus ATCC 12066 after 72 hrs by microdilution method; assay type: functional
# [19] = tested on: Bacillus cereus; experiment: Antibacterial activity against Bacillus cereus clinical isolate after 24 hrs by microdilution method; assay type: functional
# [20] = tested on: Aspergillus niger; experiment: Fungicidal activity against Aspergillus niger ATCC 6275 after 72 hrs by microdilution method; assay type: functional
# [21] = tested on: Escherichia coli; experiment: Antibacterial activity against Escherichia coli ATCC 35210 after 24 hrs by microdilution method; assay type: functional; conditions: ATCC 35210, 24 h
# [22] = tested on: Listeria monocytogenes; experiment: Antibacterial activity against Listeria monocytogenes NCTC 7973 after 24 hrs by microdilution method; assay type: functional; conditions: NCTC 7973, 24 h
# [23] = tested on: Penicillium ochrochloron; experiment: Antifungal activity against Penicillium ochrochloron ATCC 9112 after 72 hrs by microdilution method; assay type: functional; conditions: ATCC 9112, 72 h
# [24] = tested on: Aspergillus fumigatus; experiment: Antifungal activity against Aspergillus fumigatus isolated from human after 72 hrs by microdilution method; assay type: functional
# [25] = tested on: Trichoderma viride; experiment: Fungicidal activity against Trichoderma viride IAM 5061 after 72 hrs by microdilution method; assay type: functional
# [26] = tested on: Aspergillus versicolor; experiment: Fungicidal activity against Aspergillus versicolor ATCC 11730 after 72 hrs by microdilution method; assay type: functional
# [27] = tested on: Trichoderma viride; experiment: Antifungal activity against Trichoderma viride IAM 5061 after 72 hrs by microdilution method; assay type: functional; conditions: IAM 5061, 72 h
# [28] = tested on: Micrococcus flavus; experiment: Antibacterial activity against Micrococcus flavus ATCC 10240 after 24 hrs by microdilution method; assay type: functional; conditions: ATCC 10240, 24 h
# [29] = tested on: Listeria monocytogenes; experiment: Bactericidal activity against Listeria monocytogenes NCTC 7973 after 72 hrs by microdilution method; assay type: functional
# [30] = tested on: Micrococcus flavus; experiment: Bactericidal activity against Micrococcus flavus ATCC 10240 after 72 hrs by microdilution method; assay type: functional
# [31] = tested on: Aspergillus versicolor; experiment: Antifungal activity against Aspergillus versicolor ATCC 11730 after 72 hrs by microdilution method; assay type: functional; conditions: ATCC 11730, 72 h
# [32] = tested on: Enterobacter cloacae; experiment: Bactericidal activity against Enterobacter cloacae ATCC 35030 isolated from human after 72 hrs by microdilution method; assay type: functional
# [33] = tested on: Aspergillus flavus; experiment: Antifungal activity against Aspergillus flavus ATCC 9643 after 72 hrs by microdilution method; assay type: functional; conditions: ATCC 9643, 72 h
# [34] = tested on: Aspergillus flavus; experiment: Fungicidal activity against Aspergillus flavus ATCC 9643 after 72 hrs by microdilution method; assay type: functional
SMILES,MFC99.5 [1] [×10⁻² umol/ml],MBC99.5 [2] [×10⁻² umol/ml],MIC [3] [µM],MBC99.5 [4] [×10⁻² umol/ml],MFC99.5 [5] [×10⁻² umol/ml],MBC99.5 [6] [×10⁻² umol/ml],MFC99.5 [7] [×10⁻² umol/ml],MIC [8] [µM],MIC [9] [µM],MIC [11] [µM],MIC [12] [µM],MFC99.5 [17] [×10⁻² umol/ml],MFC99.5 [18] [×10⁻² umol/ml],MFC99.5 [20] [×10⁻² umol/ml],MIC [23] [µM],MIC [24] [µM],MFC99.5 [25] [×10⁻² umol/ml],MFC99.5 [26] [×10⁻² umol/ml],MIC [27] [µM],MIC [31] [µM],further results
CNc1nc(C)c(C2=NN(c3ccccc3)C(c3ccc([N+](=O)[O-])cc3)C2)s1 (stereo not given),32.2,20.3,254,20.3,15.2,25.4,32.2,203,254,305,127,40.6,20.3,32.2,254,127,15.2,32.2,127,254,MIC [10]: 127 µM; MIC [13]: 102 µM; MBC99.5 [14]: 25.4 ×10⁻² umol/ml; MIC [15]: 152 µM; MBC99.5 [16]: 25.4 ×10⁻² umol/ml; MIC [19]: 203 µM; MIC [21]: 178 µM; MIC [22]: 76 µM; MIC [28]: 127 µM; MBC99.5 [29]: 10.2 ×10⁻² umol/ml; MBC99.5 [30]: 20.3 ×10⁻² umol/ml; MBC99.5 [32]: 20.3 ×10⁻² umol/ml
CNc1nc(C)c(C2=NN(c3ccccc3)C(c3ccc(Cl)cc3)C2)s1 (stereo not given),15.7,21,131,21,26.2,31.4,36.7,152,262,157,131,26.2,15.7,26.2,131,131,21,21,131,131,MIC [10]: 131 µM; MIC [13]: 105 µM; MBC99.5 [14]: 18.3 ×10⁻² umol/ml; MIC [15]: 152 µM; MBC99.5 [16]: 31.4 ×10⁻² umol/ml; MIC [19]: 157 µM; MIC [21]: 183 µM; MIC [22]: 52 µM; MIC [28]: 105 µM; MBC99.5 [29]: 10.5 ×10⁻² umol/ml; MBC99.5 [30]: 21 ×10⁻² umol/ml; MBC99.5 [32]: 18.3 ×10⁻² umol/ml
c1ccc(-c2ccc(C(c3ccccc3)n3ccnc3)cc2)cc1 (stereo not given) [BIFONAZOLE],64,–,480,–,64,–,80,–,640,322,480,48.3,80,64,480,480,80,64,640,480,MIC [33]: 480 µM; MFC99.5 [34]: 64 ×10⁻² umol/ml
CC(=O)N1CCN(c2ccc(OCC3COC(Cn4ccnc4)(c4ccc(Cl)cc4Cl)O3)cc2)CC1 (stereo not given) [KETOCONAZOLE],380,–,380,–,95,–,95,–,380,376,380,94,95,95,3800,380,570,380,4750,2850,MIC [33]: 2850 µM; MFC99.5 [34]: 380 ×10⁻² umol/ml
